The term IC50 denotes the concentration that inhibits the measured activity by half. The low end stands for greater potency, the high end for weaker potency.

The results in this text go back to ChEMBL document CHEMBL4715766, “Systemic structure-activity relationship study of phenyl polyyne diols as potential chemopreventive agents” (Bioorg Med Chem Lett, 2016).

Test [1] in a line: Cytotoxicity against mouse Hepa1c1c7 cells. Format: cell-based. Particulars: Hepa-1c1c7.
Test [2] in a line: Chemopreventive index, ratio of IC50 for mouse Hepa-1c1c7 cells to drug level required to double NADPH:quinone reductase activity in mouse Hepa-1c1c7 cells.
Test [3] concerns the target NAD(P)H dehydrogenase [quinone] 1 (Mus musculus) (UniProt Q64669). Particulars: Hepa1c1c7, filed as activator.
Description: Induction of quinone reductase activity in mouse Hepa1c1c7 cells

Sequence of NAD(P)H dehydrogenase [quinone] 1 (Mus musculus) (Q64669 whole entry): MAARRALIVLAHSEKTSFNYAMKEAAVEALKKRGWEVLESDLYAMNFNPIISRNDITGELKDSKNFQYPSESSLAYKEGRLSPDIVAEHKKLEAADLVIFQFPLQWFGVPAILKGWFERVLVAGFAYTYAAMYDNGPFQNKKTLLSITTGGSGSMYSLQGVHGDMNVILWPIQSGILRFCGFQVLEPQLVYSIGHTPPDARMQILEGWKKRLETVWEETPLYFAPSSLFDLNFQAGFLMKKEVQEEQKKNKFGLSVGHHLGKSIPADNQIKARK

The compound `CCCCCC(O)C#CC#CC(O)c1ccc2c(c1)OCO2` (centres undefined) showed an IC50 in test [1] greater than 50 µM. The Ratio in test [2] is reported as greater than 28.2.

Regarding `C[S+]([O-])CCCCN=C=S` (centres undefined) [SULFORAPHANE], in test [2], the Ratio was found to be 29.5. The compound also returned a CD in test [3] of 0.5 µM.
